Molecules are shown by their SMILES. Residues, ends and D or L forms follow the SMILES beside them. *: point of attachment. NHBn = c1ccc(CN*)cc1; Bz = O=C(c1ccccc1)*; NHiPr = CC(C)N*

The record followed here is ChEMBL document CHEMBL4840342, “The spectrum between substrates and inhibitors: Pinpointing the binding mode of dengue protease ligands with modulated basicity and hydrophobicity” (Bioorg Med Chem, 2021).

One experiment concerns the target Genome polyprotein (dengue virus type 2, UniProt P29990). The experiment is described as follows: Inhibition of Dengue virus 2 NS2B-NS3 protease using Abz-Nle-Lys-Arg-Arg-Ser-Tyr(3-NO2)-NH2 as substrate preincubated with enzyme for 15 mins followed by substrate addition and measured for 15 mins by FRET assay relative to control.
Experiment [1] addresses Genome polyprotein (dengue virus type 2) (UniProt P29990). The experiment is described as follows: Inhibition of Dengue virus 2 NS2B-NS3 protease using Abz-Nle-Lys-Arg-Arg-Ser-Tyr(3-NO2)-NH2 as substrate at 50 uM preincubated with enzyme for 15 mins followed by substrate addition and measured for 15 mins by FRET assay relative to control. Particulars: time 30.0 min.

As a reminder, the IC50 is the midpoint of a concentration-inhibition curve. What is called inhibition is the drop in the measured response relative to a control, in per cent. Consider `N=C(N)NCCC[C@H](NC(=O)c1ccccc1)C(=O)N[C@@H](CCCCN)C(=O)N[C@@H](C(=O)N[C@H](C(N)=O)C1CCCCC1)c1ccc(OCc2ccccc2)cc1`, for which, at Genome polyprotein, the IC50 was found to be 13.7 µM. Moreover, the inhibition in experiment [1] is 95.9%. The corresponding values for `NCCCC[C@H](NC(=O)[C@@H](NC(=O)c1ccccc1)c1ccc(OCc2ccccc2)cc1)C(=O)N[C@@H](C(N)=O)c1ccc(OCc2ccccc2)cc1` are 6.6 µM and 98.8%. The compound `NCCCC[C@H](NC(=O)c1ccccc1)C(=O)N[C@@H](C(=O)N[C@@H](C(N)=O)C1CCCCC1)c1ccc(OCc2ccccc2)cc1` came in with an IC50 at Genome polyprotein of 7.9 µM. In addition, the inhibition in experiment [1] amounted to 98%. The like results for `N=C(N)Nc1ccc(C[C@H](NC(=O)[C@@H](NC(=O)c2ccccc2)c2ccc(OCc3ccccc3)cc2)C(=O)N[C@@H](C(N)=O)c2ccc(OCc3ccccc3)cc2)cc1` were, in that order, 1.7 µM and 101%. Take `N=C(N)NCCC[C@H](NC(=O)c1ccccc1)C(=O)N[C@@H](CCCCN)C(=O)NCc1ccc(OCc2ccccc2)cc1`: in experiment [1], the inhibition turned out to be 63.3%.

Regarding `N=C(N)NCCC[C@H](NC(=O)c1ccccc1)C(=O)N[C@H](Cc1ccc(N)cc1)C(=O)NCc1ccc(OCc2ccccc2)cc1`, the inhibition in experiment [1] worked out at 29.1%. For the compound `N=C(N)NCCC[C@H](NC(=O)c1ccccc1)C(=O)N[C@@H](CCCCN)C(=O)N[C@@H](C(=O)NCc1ccc(CN)cc1)c1ccc(OCc2ccccc2)cc1`, the IC50 against Genome polyprotein worked out at 0.3 µM. Besides, the inhibition in experiment [1] amounted to 99.7%. The corresponding values for `NCCCC[C@H](NC(=O)c1ccccc1)C(=O)N[C@H](Cc1ccc(N)cc1)C(=O)NCc1ccc(OCc2ccccc2)cc1` are 35.8 µM and 94.5%. In the case of `N=C(N)NCCC[C@H](NC(=O)c1ccccc1)C(=O)N[C@@H](CCCCN)C(=O)NCCc1ccc(OCc2ccccc2)cc1`, the inhibition in experiment [1] stood at 63.9%. With `NCCCC[C@H](NC(=O)c1ccccc1)C(=O)N[C@@H](C(=O)N[C@H](C(N)=O)C1CCCCC1)c1ccc(OCc2ccccc2)cc1`, on Genome polyprotein, the IC50 was 9.4 µM. The inhibition in experiment [1] amounted to 99.6%. Take `N=C(N)NCCC[C@H](NC(=O)c1ccccc1)C(=O)N[C@@H](CCCCN)C(=O)Nc1ccc(OCc2ccccc2)cc1`: in experiment [1], the inhibition was 59.8%. For the compound `NCCCC[C@H](NC(=O)c1ccccc1)C(=O)N[C@@H](Cc1ccc(N)cc1)C(=O)NCc1ccc(OCc2ccccc2)cc1`, in experiment [1], the inhibition was below 20%. The same measure, in the same setting: for `CC(C)NC(=O)[C@H](CCCCN)NC(=O)[C@H](CCCNC(=N)N)NC(=O)c1ccccc1` (Bz-Arg-Lys-NHiPr) the value was 28.8%.

As to `N=C(N)NCCC[C@H](NC(=O)c1ccccc1)C(=O)N[C@@H](CCCCN)C(=O)NCc1ccccc1` (Bz-Arg-Lys-NHBn), the inhibition in experiment [1] is 41.3%. On the same count and under the same terms, under `CC[C@@H](C)[C@H](NC(=O)[C@H](NC(=O)[C@H](CCCCN)NC(=O)[C@H](CCCNC(=N)N)NC(=O)c1ccccc1)c1ccc(OCc2ccccc2)cc1)C(N)=O` stands 58.1%.

Take `NCCCC[C@H](NC(=O)c1ccccc1)C(=O)N[C@H](C(=O)N[C@H](C(N)=O)C1CCCCC1)c1ccc(OCc2ccccc2)cc1`: the IC50 against Genome polyprotein is 9.9 µM. Besides, in experiment [1], the inhibition turned out to be 93.1%. Turning to `N=C(N)NCCC[C@H](NC(=O)c1ccccc1)C(=O)N[C@@H](Cc1ccc(N)cc1)C(=O)NCc1ccc(OCc2ccccc2)cc1`, the inhibition in experiment [1] was 69.3%. `N=C(N)NCCC[C@H](NC(=O)c1ccccc1)C(=O)N[C@@H](CCCCN)C(=O)N[C@@H](C(=O)NCc1ccc(C(N)=O)cc1)c1ccc(OCc2ccccc2)cc1` had an IC50 against Genome polyprotein of 0.4 µM. The inhibition in experiment [1] is 103%.
